Laboratory results as given in US20040126385A1, “Methods and compositions for screening, diagnosing, or treating NF-kappaB related disease” (priority 2001, published 2004).

Experiments:
CSMLO-induced tumors = experiment: Tumor growth in mouse tumor model (CSMLO cells implanted in female A-J mice); format: in vivo
Procedure: FIG. 1. Inhibition of growth of tumors by Go6976. Tumors were generated in female A-J mice by implantation of CSMLO cells (10^6) on day 0 (indicated by the arrow). Go6976 (0.5 ml of 0.05 mM solution in 0.1% DMSO) was administered 48 h later to a group of five animals, twice a week locally at the site of implantation of cells (♦). Control group (five animals) received 0.5 ml of 0.1% DMSO similarly (□). Growth of tumors was monitored by measurements of tumor volume at regular intervals (32).
(§1) FIG. 2. Regression of tumors by Go6976. (A) CSMLO cells were implanted on day 0 (indicated by the arrow) as for FIG. 1. Go6976 was administered on day 21 (indicated by the arrow), locally under the tumors of the five animals with comparatively larger tumors (▪). Another five animals received the same volume of 0.1% DMSO (♦) on the same day, and the control group of five animals received nothing (□). (B) One representative of five animals from each group. Animals 1 and 2 are DMSO- and Go6976-treated non-tumor-bearing animals, respectively. Animal 3 is tumor-bearing and without treatment. Animals 4 and 5 represent tumor-bearing groups treated with DMSO and Go6976, respectively. Animal 6 is an A-J mouse that received nothing.
Animal model. […] Palpable tumors were consistently detected within 10-15 days following implantation of the cells. Body weight and tumor volumes (32) were monitored weekly. […]

NF-κB = experiment: Level of active NF-κB in nuclear extracts by EMSA; format: cell-based, mouse; conditions: CSMLO cells
Procedure: FIG. 3. Active NF-κB complex in CSMLO cells: Stimulation by PMA and inhibition by Go6976. (A) Nuclear extracts (5 μg protein) from control and PMA-treated (20 ng/ml for 18 h) CSMLO cells were incubated in a standard EMSA reaction mixture containing [γ-^32P]-labeled double-stranded oligonucleotide plus Go6976 at the indicated μM concentrations for […] and subjected to nondenaturing PAGE (7, 31). The autoradiographic signals of the retarded NF-κB-[^32 P]DNA complex is indicated by the upper arrow and the free [γ-^32P]-labeled probe by the lower arrow. (B) The NF-κB-[^32P]DNA complex was characterized by supershift assay with anti-p50 (lanes 3 and 4) or p65 (B, lanes 5 and 6) antibodies. Nuclear extracts were incubated with specific antibodies for 15 min at room temperature, followed by incubation for an additional 30 min in the presence of [γ-^32p] double-stranded NF-κB oligonucleotide, and subjected to EMSA as described (7, 31). The supershifted complexes are indicated by the upper arrow.
Methods. Measurements of the level of active NF-κB by EMSA. The level of active NF-κB in the nuclear extracts of control and treated cells was determined by its DNA binding activity by EMSA as described 7, 30, 31). The [^32P]DNA-protein complex was identified as a retarded radioactive band in EMSA detected by autoradiography. […]

CSMLO cells = experiment: Growth of CSMLO cells under culture conditions; format: cell-based, mouse; conditions: short-term drug treatment with 10 μM Go6976
Procedure: Materials. Mouse mammary adenocarcinoma cells in culture (CSMLO) were grown in complete medium supplemented with 10% FBS and growth factors as described (7, 11, 12). Anti-human ER antibody (SC543), anti-mouse ccD1 antibody, anti-p50, and anti-p65 antibodies for the NF-κB subunits were obtained from Santa Cruz Biotechnology. Rabbit polyclonal IgG raised against the conserved region of actin and anti-Flag (M2) monoclonal antibody were obtained from Sigma-Aldrich. The fluorescein-conjugated goat anti-mouse IgG was from Oncogene Science. Complementary strands of the oligonucleotide (5′-[…]-3′) containing the NF-κB motif (bold faced) were custom synthesized by Integrated DNA Technologies (Coralville, Iowa). The double-stranded NF-κB-oligonucleotide was end-labeled with [γ-^32P]ATP (NEN) and T4 kinase (New England Biolabs) as described (7), and was used for electrophoretic mobility shift assay (EMSA). Hydrocortisone, insulin, DTT, dimethyl sulfoxide (DMSO), and phenylmethylsulfonyl fluoride were obtained from Sigma. Hybond nitrocellulose membrane and ECL (enhanced chemiluminescence) immunodetection kits were obtained from Amersham Pharmacia. Go6976, a nonglyosidic indolcarbazole, and an inhibitor of protein kinase C alpha and beta was purchased from Calbiochem-Novabiochem (28, 29).

[1] = tested on: tumor, liver, and lung tissues; experiment: Histology (H&E) of tumor, liver and lung tissues of tumor-bearing animals; format: in vivo, mouse
Excerpt: FIG. 4. Histology of tissues from untreated and Go6976-treated tumor-bearing animals. Tumor growth and treatment conditions are the same as described for FIG. 1. Tumor, liver, and lung tissues from untreated and treated tumor bearing animals were dissected 11 days after the initiation of treatment and 32 days after implantation of the cells. Tissues were processed for hematoxylin/eosin (H&E) staining, examined under a light microscope, and photographed at the indicated magnifications. Arrows show mitotic cells in untreated tumor tissue. Residual tumor (T) and necrotic cells (N) of the treated tumor are shown. Stars in the treated block indicate pycnotic cells with apparent fragmentation and clumping of nuclear DNA.
(§2) Animal model. The tumorigenic potential of CSMLO and dnIkkβ-expressing stable transfectants was examined in female A-J mice 2-3 weeks old. For each mouse, 1.0 s×10^6 cells were implanted under the dorsal skin. Palpable tumors were consistently detected within 10-15 days following implantation of the cells. Body weight and tumor volumes (32) were monitored weekly. Go6976 (0.5 ml of 0.05 mM stock solution in 0.1% DMSO) was administered to each animal locally two times a week. The control group received the same volume of the solvent (0.5 ml of 0.1%).

ccD1 = experiment: Level of ccD1 by Western blot analysis; format: cell-based, mouse; conditions: CSMLO cells transfected with dnIkkβ
Excerpt: FIG. 5. Inhibition of NF-κB activation and down stream events by stable expression of dominant-negative IκB-kinase β (dnIkkβ). (A Upper) dnIkkβ-Expressing transfectant cells by light microscopy (i), 4′,6-diamidino-2-phenylindole (DAPI)-stained nuclei (ii), and immunofluorescence with anti-FLAG antibody in the presence of the secondary antibody (iii). The positive signals show dnIkkβ-conjugated FLAG protein in the cytoplasm. (Lower) Processed vector-control plasmid-transfected CSMLO cells in which no FLAG protein could be detected (vi). (B Upper) Active NF-κB was determined by its [γ-^32P]DNA binding activity by EMSA, in three dnIkkβ-expressing stable transfectants (dnIkkβ1-1, dnIkkβ1-3, and dnIkkβ1-5) and (Lower) in parent CSMLO cells and vector control plasmid expressing transfectant (vect1-5). (C Upper) The level of ccD1 in the same three-dnIkkβ-expressing CSMLO and vector control transfected cells, as measured by Western blot analysis. (Lower) Actin analyzed similarly by immunodetection with anti-β-actin antibody that serves as a loading control.

[2] = Physical condition and lethality of treated mice; format: in vivo
Procedure: as §1, §2

Cn1c2ccccc2c2c3c(c4c5ccccc5n(CCC#N)c4c21)CNC3=O [Go6976]
tumor growth (tumor volume) (CSMLO-induced tumors; Go6976 0.5 ml of 0.05 mM in 0.1% DMSO, local, twice a week, started within 48 h of implantation of CSMLO cells, vs DMSO-treated group): substantial inhibition of tumor growth
regression of full-grown tumors (tumor volume) (CSMLO-induced tumors; Go6976 administered locally 21 days after implantation of CSMLO cells, all of five animals): regressed sharply
basal level of NF-κB (NF-κB): did not affect the basal level of NF-κB
PMA-induced elevation of NF-κB activation (NF-κB; PMA 20 ng/ml, simultaneous treatment with Go6976 for 48 h): inhibited in a concentration-dependent manner
growth of cells under culture conditions (CSMLO cells): not affected
histological changes in tumor tissue ([1]; Go6976-treated tumor-bearing animals, 11 days after initiation of treatment): extensive necrosis
pycnotic cells in residual tumor tissue (suggestive of DNA fragmentation and apoptosis) ([1]; treated animal, magnification 100×): a large number of pycnotic cells with nuclear clumping
pathological changes in liver and lung tissue ([1]; tumor-bearing or non-tumor-bearing animals, localized Go6976 treatment): did not show any microscopically detectable pathological changes
transactivation of ccD1 (ccD1): blocked transactivation of ccD1
physical defects as judged by body weight and agility ([2]; mice without tumor treated with Go6976): did not show any apparent physical defects
mouse lethality ([2]; mouse, in vivo): without mouse lethality
